Assay results: patent US12433936B2, “High-purity adrenocorticotropic hormone analogue and a large-scale preparation method thereof” (Nanjing Hanxin Pharmaceutical Technology Co., Ltd., priority 2021, dated 2025)
No end group written: not given here.

Experiments:
[1] = Study of stability, packed samples stored at 2-8° C. for 6 months; format: physicochemical; conditions: for Conclusion: Character / Conclusion: Moisture / Conclusion: Polymer / Conclusion: Related substances (maximum single impurity) / Conclusion: The purity of chromatographic: up to 6 months
Method: The samples prepared in example 8 were packed in double-layer medical low-density polyethylene bags and a layer of aluminum-plastic composite bags and stored at 2-8° C. for evaluation at 1, 2, 3 and 6 months respectively.
The samples prepared in example 9 were packed in double-layer medical low-density polyethylene bags and a layer of aluminum-plastic composite bags and stored at 2-8° C. for evaluation at 1, 2, 3 and 6 months respectively.

[2] = target: T1, melanocortin receptor 2 (MC2R) (Homo sapiens, UniProt Q01718); experiment: Activity in vitro: calcium ion signal in CHO-K1 cells expressing MC2R; format: cell-based; conditions: for EC50 / Binding ability to MC2R and biological activity (in words) / Bottom / HillSlope / Top: CHO-K1 cells expressing MC2R; for EC50 / Bottom / HillSlope / Top: calcium ion signal; for EC50: read-out: EC50 (half inhibitory concentration); for Bottom / HillSlope / Top: curve fit
T1 construct: expressed in transfected cells; host or cells: CHO-K1
Method: ACTH was a receptor agonist of melanocortin receptor 2 (MC2R). The combination of ACTH and MC2R could stimulate the signal pathway of the downstream and change the signal factors such as calcium ions and cAMP. The binding ability of ACTH and MC2R was determined by detecting calcium ion signals, and then the cell activity of ACTH in vitro was judged.
The samples in example 8 and example 10 were taken for activity study in vitro. CHO-K1 cells expressing MC2R were cultured in 10 cm vessels and stored at 37° C. and 5% CO2.

[3] = target: heart receptor protein (hERG) (Homo sapiens, UniProt Q12809); experiment: in vitro
Source text: (§1) The cardiac […] toxicity of drugs was judged by detecting the affinity between drugs and heart receptor protein (hERG) in vitro.

hERG = hERG (Homo sapiens, UniProt Q12809); experiment: in vitro; conditions: human
Source text: as §1

[4] = tested on: infantile spasticity (IS) rat model; experiment: Incubation period of spasticity in infantile spasticity (IS) rat model (betamethasone/NMDA); format: in vivo, Sprague Dawley (SD) rats
Method: (1) Method: To investigate the effect of SEQ ID NO.4 on the incubation period of spasticity in infantile spasticity (IS) rat model.
Incubation period: Time from NMDA injection to onset of spasticity (time is measured in units of seconds).
Sham group: Sprague Dawley (SD) rats were intraperitoneally injected with saline (10 mL/kg each time) at 9:00 am and 19:00 pm respectively on the 15th day of pregnancy, and the neonatal rats (n=12) were intraperitoneally injected with saline of the same volume as the drug group on the 15th day after birth. Model group (IS group): SD rats were intraperitoneally injected with betamethasone (0.4 mg/kg each time) at 9:00 am and 19:00 pm respectively on the 15th day of pregnancy. The neonatal rats (n=12) were intraperitoneally injected with N-methyl-D-aspartic acid (NMDA, 15 mg/kg) at 15:30 pm on the 15th day after birth to establish infant spasticity (neonatal spasticity) rat model, and the incubation period from NMDA injection to spasticity was recorded. […] After the second injection of SEQ ID NO.4 for 30 minutes (i.e. 15:30 pm), NMDA (15 mg/kg) was intraperitoneally injected to establish infant spasticity rat model, and the incubation period from NMDA injection to spasticity was recorded.

Chain of heart receptor protein (hERG) (Q12809 whole entry): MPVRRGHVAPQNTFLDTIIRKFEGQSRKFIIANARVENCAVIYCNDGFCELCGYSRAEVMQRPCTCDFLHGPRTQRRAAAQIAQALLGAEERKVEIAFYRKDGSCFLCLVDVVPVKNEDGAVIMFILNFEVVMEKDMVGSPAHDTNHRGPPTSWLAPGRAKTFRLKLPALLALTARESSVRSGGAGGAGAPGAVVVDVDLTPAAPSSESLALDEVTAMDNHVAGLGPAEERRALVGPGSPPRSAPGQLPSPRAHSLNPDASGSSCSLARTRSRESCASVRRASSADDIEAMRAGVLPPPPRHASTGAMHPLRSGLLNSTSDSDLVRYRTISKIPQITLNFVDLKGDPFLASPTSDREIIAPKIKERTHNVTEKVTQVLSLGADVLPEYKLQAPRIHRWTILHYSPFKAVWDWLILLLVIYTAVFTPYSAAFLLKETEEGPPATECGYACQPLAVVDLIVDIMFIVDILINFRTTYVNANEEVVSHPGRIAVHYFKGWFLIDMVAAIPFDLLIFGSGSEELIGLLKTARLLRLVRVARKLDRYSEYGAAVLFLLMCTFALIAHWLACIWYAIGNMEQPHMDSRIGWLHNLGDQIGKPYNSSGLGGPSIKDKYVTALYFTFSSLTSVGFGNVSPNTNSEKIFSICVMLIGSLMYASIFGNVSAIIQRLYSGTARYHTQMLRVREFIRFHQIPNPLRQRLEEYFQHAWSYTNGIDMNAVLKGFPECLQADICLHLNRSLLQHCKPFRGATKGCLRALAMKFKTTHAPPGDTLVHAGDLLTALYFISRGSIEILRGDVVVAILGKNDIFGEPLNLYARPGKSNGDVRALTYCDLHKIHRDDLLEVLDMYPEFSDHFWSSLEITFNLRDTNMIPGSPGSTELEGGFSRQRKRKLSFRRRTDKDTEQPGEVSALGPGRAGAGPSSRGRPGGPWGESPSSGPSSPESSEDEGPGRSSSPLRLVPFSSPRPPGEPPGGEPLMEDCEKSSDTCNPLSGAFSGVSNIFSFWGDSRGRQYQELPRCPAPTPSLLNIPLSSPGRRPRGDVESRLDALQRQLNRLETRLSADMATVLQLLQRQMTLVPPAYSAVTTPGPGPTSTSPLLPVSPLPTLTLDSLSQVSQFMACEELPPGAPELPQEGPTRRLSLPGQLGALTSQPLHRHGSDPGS
T1 sequence (Q01718 whole entry, species assumed): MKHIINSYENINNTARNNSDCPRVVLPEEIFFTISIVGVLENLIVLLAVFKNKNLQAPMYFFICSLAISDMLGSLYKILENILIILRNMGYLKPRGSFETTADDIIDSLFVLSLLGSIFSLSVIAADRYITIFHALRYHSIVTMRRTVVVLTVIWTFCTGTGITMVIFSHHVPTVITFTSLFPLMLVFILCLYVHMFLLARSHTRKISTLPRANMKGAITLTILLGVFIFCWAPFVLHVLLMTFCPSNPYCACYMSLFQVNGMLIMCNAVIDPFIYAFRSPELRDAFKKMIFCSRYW
T1 sequence (Q8TCY5 whole entry partner, species assumed): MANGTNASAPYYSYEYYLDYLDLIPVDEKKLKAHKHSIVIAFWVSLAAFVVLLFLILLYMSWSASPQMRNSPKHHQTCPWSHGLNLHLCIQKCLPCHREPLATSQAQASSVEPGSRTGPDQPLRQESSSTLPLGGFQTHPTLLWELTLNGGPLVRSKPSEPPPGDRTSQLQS
Chain of hERG (Q12809 whole entry): as the sequence (Q12809 whole entry) above

Which results are given for “SYSMEHFRWGKPVGKKRRPVKVYPNGAEDESAEAFPLEF [Example 8]”?
Stability under the storage condition (in words) ([1]; 2-8° C., 6 months): stable; EC50 [2]: 180 nM; Cardiac metabolic toxicity (in words) [3]: no cardiac metabolic toxicity; IC50 [3]: > 10000 nM; inhibition at 10000 nM (hERG): -1.28%

For “H-SYSMEHFRWGKPVGKKRRPVKVYPNGAEDESAEAFPLEF-OH [Example 8]”, which “Character (Visual)” value ([1]; 2-8° C., 1 month) is on record?
The value was “White”.

What about the “Moisture, Karl Fischer” value ([1]; 2-8° C., 1 month) of the same substance?
Its value is 7.3%.

And the “Polymer (impurity with molecular weight greater than the peptide), HPLC” value (from here on “Polymer … HPLC”) ([1]; 2-8° C., 1 month)?
The value was 0.05%.

And the “Related substances (maximum single impurity), HPLC” value ([1]; 2-8° C., 1 month)?
The value was 0.17%.

What about the “Related substances (total impurities), HPLC” value ([1]; 2-8° C., 1 month) of the same substance?
Its value is 0.29%.

What about the “The purity of chromatographic, HPLC” value ([1]; 2-8° C., 1 month) of the same substance?
The value was 99.71%.

What about the “Character (Visual)” value ([1]; 2-8° C., 2 months) of the same substance?
The value was “White”.

And the “Moisture, Karl Fischer” value ([1]; 2-8° C., 2 months)?
The value was 7.5%.

And the “Polymer … HPLC” value ([1]; 2-8° C., 2 months)?
The value was 0.03%.

And the “Related substances (maximum single impurity), HPLC” value ([1]; 2-8° C., 2 months)?
Its value is 0.17%.

And the “Related substances (total impurities), HPLC” value ([1]; 2-8° C., 2 months)?
Its value is 0.29%.

And the “The purity of chromatographic, HPLC” value ([1]; 2-8° C., 2 months)?
Its value is 99.71%.

What about the “Character (Visual)” value ([1]; 2-8° C., 3 months) of the same substance?
Its value is “White”.

And the “Moisture, Karl Fischer” value ([1]; 2-8° C., 3 months)?
Its value is 8.4%.

And the “Polymer … HPLC” value ([1]; 2-8° C., 3 months)?
Its value is 0.06%.

What about the “Related substances (maximum single impurity), HPLC” value ([1]; 2-8° C., 3 months) of the same substance?
Its value is 0.16%.

And the “Related substances (total impurities), HPLC” value ([1]; 2-8° C., 3 months)?
The value was 0.38%.

What about the “The purity of chromatographic, HPLC” value ([1]; 2-8° C., 3 months) of the same substance?
The value was 99.62%.

What about the “Character (Visual)” value ([1]; 2-8° C., 6 months) of the same substance?
Its value is “White”.

What about the “Moisture, Karl Fischer” value ([1]; 2-8° C., 6 months) of the same substance?
Its value is 8.3%.

What about the “Polymer … HPLC” value ([1]; 2-8° C., 6 months) of the same substance?
Its value is 0.04%.

And the “Related substances (maximum single impurity), HPLC” value ([1]; 2-8° C., 6 months)?
The value was 0.11%.

And the “Related substances (total impurities), HPLC” value ([1]; 2-8° C., 6 months)?
The value was 0.39%.

And the “The purity of chromatographic, HPLC” value ([1]; 2-8° C., 6 months)?
The value was 99.61%.

And the “Conclusion: Character” value ([1]; 2-8° C.)?
Its value is “Qualified”.

And the “Conclusion: Moisture” value ([1]; 2-8° C.)?
The value was “Qualified”.

And the “Conclusion: Polymer” value ([1]; 2-8° C.)?
Its value is “Qualified”.

And the “Conclusion: Related substances (maximum single impurity)” value ([1]; 2-8° C.)?
The value was “Qualified”.

What about the “Conclusion: The purity of chromatographic” value ([1]; 2-8° C.) of the same substance?
Its value is “Qualified”.

What about the “Character (Visual)” value ([1]; Start) of the same substance?
Its value is “White”.

And the “Moisture, Karl Fischer” value ([1]; Start)?
Its value is 5.0%.

What about the “Polymer … HPLC” value ([1]; Start) of the same substance?
Its value is 0.03%.

And the “Related substances (maximum single impurity), HPLC” value ([1]; Start)?
Its value is 0.07%.

And the “Related substances (total impurities), HPLC” value ([1]; Start)?
Its value is 0.13%.

And the “The purity of chromatographic, HPLC” value ([1]; Start)?
Its value is 99.88%.

And the “Binding ability to MC2R and biological activity (in words)” value [2]?
Its value is “had binding ability to melanocortin receptor 2 (MC2R) and showed biological activity”.

And the Bottom [2]?
The Bottom was −2.739.

And the HillSlope [2]?
The HillSlope was 0.9745.

And the Top [2]?
Its Top is 100.9.

And the “Activity of high-purity ACTH relative to low-purity ACTH” value ([2]; ratio of EC50 values)?
Its value is 1.6 times.

With “H-SYSMEHFRWGKPVGKKRRPVKVYPNGAEDESAEAFPLEF-OH [Example 10, reference compound]” as the substance, how does the “Binding ability to MC2R and biological activity (in words)” value [2] read?
Its value is “had binding ability to melanocortin receptor 2 (MC2R) and showed biological activity”.

And the Bottom [2]?
Its Bottom is −1.846.

What about the HillSlope [2] of the same substance?
Its HillSlope is 1.249.

And the Top [2]?
The Top was 94.88.

What does the source list for “SYSMEHFRWGKPVGKKRRPVKVYPNGAEDESAEAFPLEF [Example 10, reference compound]”?
EC50 [2]: 288 nM; Cardiac metabolic toxicity (in words) [3]: no cardiac metabolic toxicity

Which “Character (Visual)” value ([1]; 2-8° C., 1 month) does the source give for “SYSMEHFRWGKPVGKKRRPVKVYPDGAEDESAEAFPLEF (also: deamidated at N25 (given as D), Asp or isoAsp not given here) [Example 9]” here?
The value was “White”.

And the “Moisture, Karl Fischer” value ([1]; 2-8° C., 1 month)?
Its value is 7.5%.

And the “Polymer … HPLC” value ([1]; 2-8° C., 1 month)?
The value was 0.04%.

What about the “Related substances (maximum single impurity), HPLC” value ([1]; 2-8° C., 1 month) of the same substance?
The value was 0.24%.

What about the “Related substances (total impurities), HPLC” value ([1]; 2-8° C., 1 month) of the same substance?
The value was 0.42%.

And the “The purity of chromatographic, HPLC” value ([1]; 2-8° C., 1 month)?
Its value is 99.58%.

And the “Character (Visual)” value ([1]; 2-8° C., 2 months)?
The value was “White”.

And the “Moisture, Karl Fischer” value ([1]; 2-8° C., 2 months)?
Its value is 7.6%.

And the “Polymer … HPLC” value ([1]; 2-8° C., 2 months)?
The value was 0.05%.

And the “Related substances (maximum single impurity), HPLC” value ([1]; 2-8° C., 2 months)?
Its value is 0.17%.

What about the “Related substances (total impurities), HPLC” value ([1]; 2-8° C., 2 months) of the same substance?
The value was 0.43%.

And the “The purity of chromatographic, HPLC” value ([1]; 2-8° C., 2 months)?
Its value is 99.57%.

And the “Character (Visual)” value ([1]; 2-8° C., 3 months)?
Its value is “White”.

And the “Moisture, Karl Fischer” value ([1]; 2-8° C., 3 months)?
Its value is 8.5%.

What about the “Polymer … HPLC” value ([1]; 2-8° C., 3 months) of the same substance?
The value was 0.06%.

What about the “Related substances (maximum single impurity), HPLC” value ([1]; 2-8° C., 3 months) of the same substance?
Its value is 0.27%.

What about the “Related substances (total impurities), HPLC” value ([1]; 2-8° C., 3 months) of the same substance?
The value was 0.46%.

And the “The purity of chromatographic, HPLC” value ([1]; 2-8° C., 3 months)?
The value was 99.54%.

What about the “Character (Visual)” value ([1]; 2-8° C., 6 months) of the same substance?
Its value is “White”.

And the “Moisture, Karl Fischer” value ([1]; 2-8° C., 6 months)?
Its value is 8.6%.

And the “Polymer … HPLC” value ([1]; 2-8° C., 6 months)?
Its value is 0.06%.

And the “Related substances (maximum single impurity), HPLC” value ([1]; 2-8° C., 6 months)?
The value was 0.10%.

And the “Related substances (total impurities), HPLC” value ([1]; 2-8° C., 6 months)?
Its value is 0.49%.

And the “Stability under the storage condition (in words)” value ([1]; 2-8° C., 6 months)?
Its value is “stable”.

And the “The purity of chromatographic, HPLC” value ([1]; 2-8° C., 6 months)?
The value was 99.51%.

And the “Conclusion: Character” value ([1]; 2-8° C.)?
Its value is “Qualified”.

And the “Conclusion: Moisture” value ([1]; 2-8° C.)?
Its value is “Qualified”.

What about the “Conclusion: Polymer” value ([1]; 2-8° C.) of the same substance?
Its value is “Qualified”.

And the “Conclusion: Related substances (maximum single impurity)” value ([1]; 2-8° C.)?
The value was “Qualified”.

What about the “Conclusion: The purity of chromatographic” value ([1]; 2-8° C.) of the same substance?
The value was “Qualified”.

What about the “Character (Visual)” value ([1]; Start) of the same substance?
The value was “White”.

What about the “Moisture, Karl Fischer” value ([1]; Start) of the same substance?
Its value is 5.2%.

What about the “Polymer … HPLC” value ([1]; Start) of the same substance?
The value was 0.03%.

And the “Related substances (maximum single impurity), HPLC” value ([1]; Start)?
Its value is 0.16%.

What about the “Related substances (total impurities), HPLC” value ([1]; Start) of the same substance?
The value was 0.42%.

And the “The purity of chromatographic, HPLC” value ([1]; Start)?
The value was 99.58%.

And the “Incubation period of spasticity vs IS group” value ([4]; high-dose group 0.28 U/g i.p. twice, neonatal rats day 15, P<0.0001)?
Its value is “significantly prolong”.

And the “Incubation period of spasticity vs IS group” value ([4]; low-dose group 0.01 U/g i.p. twice, neonatal rats day 15, p<0.001)?
The value was “significantly prolong”.
